Results from patent US10246453B2, “Benzenesulfonamide compounds and their use as therapeutic agents” (Xenon Pharmaceuticals Inc., priority 2016, dated 2019).
Where a name gives a salt, the structure may show the parent alone.

Legend:
NaV1.6 = NaV1.6 (Homo sapiens (Human), UniProt Q9UQD0); assay: Sodium Influx Assay (Flux), NaV1.6; conditions: read-out: Flux NaV1.6 IC50; Trex HEK293 cells, ANG2 dye; arithmetic mean
NaV1.1 = NaV1.1 (Homo sapiens (Human), UniProt P35498); assay: Sodium Influx Assay (Flux), NaV1.1; assay type: cell-based; conditions: Trex HEK293 cells, ANG2 dye; arithmetic mean
NaV1.5 = NaV1.5 (Homo sapiens (Human), UniProt Q14524); assay: Sodium Influx Assay (Flux), NaV1.5; conditions: read-out: Flux NaV1.5 IC50; Trex HEK293 cells, ANG2 dye; arithmetic mean
Sequence of NaV1.5 (Q14524 other isoform, or with tags, fused parts or gaps): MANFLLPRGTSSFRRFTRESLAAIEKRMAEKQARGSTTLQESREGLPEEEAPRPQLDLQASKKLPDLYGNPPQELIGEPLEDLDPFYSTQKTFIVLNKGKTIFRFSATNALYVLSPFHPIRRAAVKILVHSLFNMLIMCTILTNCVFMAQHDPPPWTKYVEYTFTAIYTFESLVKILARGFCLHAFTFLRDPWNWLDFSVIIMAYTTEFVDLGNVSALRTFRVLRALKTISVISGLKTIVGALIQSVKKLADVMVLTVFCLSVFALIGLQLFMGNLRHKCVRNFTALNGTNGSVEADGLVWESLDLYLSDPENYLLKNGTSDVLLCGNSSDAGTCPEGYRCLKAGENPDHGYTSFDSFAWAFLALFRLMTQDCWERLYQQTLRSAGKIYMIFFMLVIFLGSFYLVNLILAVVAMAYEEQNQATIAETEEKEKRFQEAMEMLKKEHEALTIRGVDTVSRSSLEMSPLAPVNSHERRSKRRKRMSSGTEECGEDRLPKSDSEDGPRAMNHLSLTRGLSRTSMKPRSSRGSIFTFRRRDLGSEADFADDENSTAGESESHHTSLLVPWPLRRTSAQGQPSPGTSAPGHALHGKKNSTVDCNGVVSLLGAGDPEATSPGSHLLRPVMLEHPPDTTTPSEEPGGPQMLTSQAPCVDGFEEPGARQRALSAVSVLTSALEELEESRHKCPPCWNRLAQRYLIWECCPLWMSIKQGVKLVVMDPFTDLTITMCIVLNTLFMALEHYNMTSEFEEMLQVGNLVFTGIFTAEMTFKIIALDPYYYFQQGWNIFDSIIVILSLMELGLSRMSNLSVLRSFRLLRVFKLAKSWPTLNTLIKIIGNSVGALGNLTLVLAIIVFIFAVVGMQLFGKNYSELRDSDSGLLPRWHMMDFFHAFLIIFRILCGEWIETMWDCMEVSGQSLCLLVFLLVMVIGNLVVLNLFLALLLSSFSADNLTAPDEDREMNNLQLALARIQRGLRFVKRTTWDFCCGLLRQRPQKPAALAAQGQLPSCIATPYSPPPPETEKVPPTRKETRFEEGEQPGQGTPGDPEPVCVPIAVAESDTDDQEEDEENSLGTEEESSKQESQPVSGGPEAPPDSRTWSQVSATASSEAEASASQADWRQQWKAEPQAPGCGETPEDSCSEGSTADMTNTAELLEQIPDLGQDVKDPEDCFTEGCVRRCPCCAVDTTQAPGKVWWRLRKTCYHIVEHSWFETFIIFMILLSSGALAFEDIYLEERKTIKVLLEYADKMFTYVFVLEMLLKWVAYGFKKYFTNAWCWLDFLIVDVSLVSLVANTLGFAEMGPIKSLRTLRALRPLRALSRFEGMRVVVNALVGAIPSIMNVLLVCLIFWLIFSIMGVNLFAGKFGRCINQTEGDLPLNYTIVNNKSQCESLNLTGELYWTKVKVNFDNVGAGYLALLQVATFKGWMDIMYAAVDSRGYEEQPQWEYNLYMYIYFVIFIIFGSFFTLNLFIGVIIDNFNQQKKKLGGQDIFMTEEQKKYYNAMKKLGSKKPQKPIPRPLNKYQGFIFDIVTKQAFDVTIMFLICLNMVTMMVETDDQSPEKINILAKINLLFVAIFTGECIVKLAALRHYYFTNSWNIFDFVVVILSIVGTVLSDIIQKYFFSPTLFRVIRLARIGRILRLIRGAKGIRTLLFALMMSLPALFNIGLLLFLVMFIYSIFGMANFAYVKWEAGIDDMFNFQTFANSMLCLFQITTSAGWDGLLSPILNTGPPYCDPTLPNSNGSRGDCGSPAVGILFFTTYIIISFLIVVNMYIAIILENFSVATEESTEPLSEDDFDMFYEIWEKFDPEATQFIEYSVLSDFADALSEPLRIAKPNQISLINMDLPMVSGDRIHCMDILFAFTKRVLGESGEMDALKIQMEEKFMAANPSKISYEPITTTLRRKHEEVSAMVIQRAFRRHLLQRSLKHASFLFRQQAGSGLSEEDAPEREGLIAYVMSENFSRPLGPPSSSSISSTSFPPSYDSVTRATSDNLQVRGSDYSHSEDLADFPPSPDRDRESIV

For `Cc1cc(S(=O)(=O)Nc2cscn2)c(F)cc1N(C)[C@H]1CCN(Cc2cc(C)n(C)n2)C1` [Example 141, (S)-4-((1-((1,5-dimethyl-1H-pyrazol-3-yl)methyl)pyrrolidin-3-yl)(methyl)amino)-2-fluoro-5-methyl-N-(thiazol-4-yl)benzenesulfonamide], the IC50 (NaV1.6) was 0.582 µM, the IC50 (NaV1.1) was > 30 µM and the IC50 (NaV1.5) was > 30 µM.

`Cc1cc(S(=O)(=O)Nc2cscn2)c(F)cc1N(C)[C@H]1CCN(Cc2ccc(C(F)(F)F)o2)C1` [Example 142, (S)-2-fluoro-5-methyl-4-(methyl(1-((5-(trifluoromethyl)furan-2-yl)methyl)pyrrolidin-3-yl)amino)-N-(thiazol-4-yl)benzenesulfonamide] was tested, and the IC50 (NaV1.6) was 0.531 µM, the IC50 (NaV1.1) was 3.7 µM and the IC50 (NaV1.5) was 6.76 µM.

`Cc1cc(S(=O)(=O)Nc2cscn2)c(F)cc1N(C)[C@H]1CCN(Cc2cocn2)C1` [Example 143, (S)-2-fluoro-5-methyl-4-(methyl(1-(oxazol-4-ylmethyl)pyrrolidin-3-yl)amino)-N-(thiazol-4-yl)benzenesulfonamide] was tested, and the IC50 (NaV1.6) was 10.2 µM, the IC50 (NaV1.1) was > 30 µM and the IC50 (NaV1.5) was > 30 µM.

Work on `Cc1cc(S(=O)(=O)Nc2cscn2)c(F)cc1N(C)[C@H]1CCN(Cc2nc3ccccc3s2)C1` [Example 144, (S)-4-((1-(benzo[d]thiazol-2-ylmethyl)pyrrolidin-3-yl)(methyl)amino)-2-fluoro-5-methyl-N-(thiazol-4-yl)benzenesulfonamide] yielded an IC50 (NaV1.6) of 4.8 µM, an IC50 (NaV1.1) of 6.72 µM and an IC50 (NaV1.5) of 8.47 µM.

`Cc1cc(S(=O)(=O)Nc2cscn2)c(F)cc1N(C)[C@H]1CCN(Cc2nc(C(C)C)cs2)C1` [Example 145, (S)-2-fluoro-4-((1-((4-isopropylthiazol-2-yl)methyl)pyrrolidin-3-yl)(methyl)amino)-5-methyl-N-(thiazol-4-yl)benzenesulfonamide] gave an IC50 (NaV1.6) of 0.515 µM, an IC50 (NaV1.1) of 9.63 µM and an IC50 (NaV1.5) of 17.1 µM.

Work on `Cc1cc(S(=O)(=O)Nc2cscn2)c(F)cc1N(C)[C@H]1CCN(Cc2ncc(Cl)s2)C1` [Example 146, (S)-4-((1-((5-chlorothiazol-2-yl)methyl)pyrrolidin-3-yl)(methyl)amino)-2-fluoro-5-methyl-N-(thiazol-4-yl)benzenesulfonamide] yielded an IC50 (NaV1.6) of 4.4 µM, an IC50 (NaV1.1) of 9.32 µM and an IC50 (NaV1.5) of 12.1 µM.

In the case of `Cc1cc(S(=O)(=O)Nc2cscn2)c(F)cc1N(C)[C@H]1CCN(Cc2ccn(C(F)F)n2)C1` [Example 147, (S)-4-((1-((1-(difluoromethyl)-1H-pyrazol-3-yl)methyl)pyrrolidin-3-yl)(methyl)amino)-2-fluoro-5-methyl-N-(thiazol-4-yl)benzenesulfonamide], the IC50 (NaV1.6) is reported as 0.482 µM, the IC50 (NaV1.1) is reported as > 30 µM and the IC50 (NaV1.5) is reported as > 30 µM.

With `Cc1ccccc1CN1CC[C@H](N(C)c2cc(F)c(S(=O)(=O)Nc3cscn3)cc2C)C1` [Example 148, (S)-2-fluoro-5-methyl-4-(methyl(1-(2-methylbenzyl)pyrrolidin-3-yl)amino)-N-(thiazol-4-yl)benzenesulfonamide] the IC50 (NaV1.6) was 0.129 µM, the IC50 (NaV1.1) was 7.58 µM and the IC50 (NaV1.5) was 12.4 µM.

`Cc1cc(S(=O)(=O)Nc2cscn2)c(F)cc1N(C)[C@H]1CCN(C2Cc3ccccc3C2)C1` [Example 149, (S)-4-((1-(2,3-dihydro-1H-inden-2-yl)pyrrolidin-3-yl)(methyl)amino)-2-fluoro-5-methyl-N-(thiazol-4-yl)benzenesulfonamide] showed an IC50 (NaV1.6) of 0.613 µM, an IC50 (NaV1.1) of 6.02 µM and an IC50 (NaV1.5) of 9.18 µM.

With `Cc1cn(C)c(CN2CC[C@H](N(C)c3cc(F)c(S(=O)(=O)Nc4cscn4)cc3C)C2)n1` [Example 150, (S)-4-((1-((1,4-dimethyl-1H-imidazol-2-yl)methyl)pyrrolidin-3-yl)(methyl)amino)-2-fluoro-5-methyl-N-(thiazol-4-yl)benzenesulfonamide] the IC50 (NaV1.6) was 0.954 µM, the IC50 (NaV1.1) was > 30 µM and the IC50 (NaV1.5) was > 30 µM.

In the case of `Cc1cc(S(=O)(=O)Nc2cscn2)c(F)cc1N(C)[C@H]1CCN(Cc2cc3n(n2)CCCC3)C1` [Example 151, (S)-2-fluoro-5-methyl-4-(methyl(1-((4,5,6,7-tetrahydropyrazolo[1,5-a]pyridin-2-yl)methyl)pyrrolidin-3-yl)amino)-N-(thiazol-4-yl)benzenesulfonamide], the IC50 (NaV1.6) is reported as 0.41 µM, the IC50 (NaV1.1) is reported as > 30 µM and the IC50 (NaV1.5) is reported as > 30 µM.

`Cc1cc(S(=O)(=O)Nc2cscn2)c(F)cc1N(C)[C@H]1CCN(Cc2nc(C(F)(F)F)cs2)C1` [Example 152, (S)-2-fluoro-5-methyl-4-(methyl(1-((4-(trifluoromethyl)thiazol-2-yl)methyl)pyrrolidin-3-yl)amino)-N-(thiazol-4-yl)benzenesulfonamide] gave an IC50 (NaV1.6) of 1.7 µM, an IC50 (NaV1.1) of 7.21 µM and an IC50 (NaV1.5) of 8.91 µM.

`Cc1cc(S(=O)(=O)Nc2cscn2)c(F)cc1N(C)[C@H]1CCN(Cc2ccn(CC(F)F)n2)C1` [Example 153, (S)-4-((1-((1-(2,2-difluoroethyl)-1H-pyrazol-3-yl)methyl)pyrrolidin-3-yl)(methyl)amino)-2-fluoro-5-methyl-N-(thiazol-4-yl)benzenesulfonamide 2,2,2-trifluoroacetate] was tested, and the IC50 (NaV1.6) was 0.185 µM, the IC50 (NaV1.1) was > 30 µM and the IC50 (NaV1.5) was > 30 µM.

Molecule `Cc1nc(CN2CC[C@H](N(C)c3cc(F)c(S(=O)(=O)Nc4cscn4)cc3C)C2)c(C(F)(F)F)o1` [Example 154, (S)-2-fluoro-5-methyl-4-(methyl(1-((2-methyl-5-(trifluoromethyl)oxazol-4-yl)methyl)pyrrolidin-3-yl)amino)-N-(thiazol-4-yl)benzenesulfonamide 2,2,2-trifluoroacetate] has an IC50 (NaV1.6) of 5.57 µM, an IC50 (NaV1.1) of 16.6 µM and an IC50 (NaV1.5) of 21.7 µM.

`Cc1cc(S(=O)(=O)Nc2cscn2)c(F)cc1N(C)[C@H]1CCN(Cc2ccccc2F)C1` [Example 155, (S)-2-fluoro-4-((1-(2-fluorobenzyl)pyrrolidin-3-yl)(methyl)amino)-5-methyl-N-(thiazol-4-yl)benzenesulfonamide] showed an IC50 (NaV1.6) of 0.22 µM, an IC50 (NaV1.1) of 12.6 µM and an IC50 (NaV1.5) of 14.4 µM.

With `Cc1cc(S(=O)(=O)Nc2cscn2)c(F)cc1O[C@@]1(C)CCN(Cc2ccccc2)C1` [Example 159, (S)-4-((1-benzyl-3-methylpyrrolidin-3-yl)oxy)-2-fluoro-5-methyl-N-(thiazol-4-yl)benzenesulfonamide formate] the IC50 (NaV1.6) was 0.178 µM, the IC50 (NaV1.1) was > 30 µM and the IC50 (NaV1.5) was > 30 µM.

With `CN(c1cc(F)c(S(=O)(=O)Nc2cscn2)cc1Cl)[C@H]1CCN(Cc2cccc(C(F)F)n2)C1` [Example 160, (S)-5-chloro-4-((1-((6-(difluoromethyl)pyridin-2-yl)methyl)pyrrolidin-3-yl)(methyl)amino)-2-fluoro-N-(thiazol-4-yl)benzenesulfonamide] the IC50 (NaV1.6) was 1.69 µM, the IC50 (NaV1.1) was 26.7 µM and the IC50 (NaV1.5) was > 30 µM.

With `CN(c1cc(F)c(S(=O)(=O)Nc2cscn2)cc1Cl)[C@H]1CCN(Cc2cccc(C(C)(C)O)c2)C1` [Example 161, (S)-5-chloro-2-fluoro-4-((1-(3-(2-hydroxypropan-2-yl)benzyl)pyrrolidin-3-yl)(methyl)amino)-N-(thiazol-4-yl)benzenesulfonamide formate] the IC50 (NaV1.6) was 4.85 µM, the IC50 (NaV1.1) was 26 µM and the IC50 (NaV1.5) was > 30 µM.

`O=S(=O)(Nc1cscn1)c1cc(Cl)c(O[C@H]2CCN(Cc3cccc(C(F)F)c3)C[C@H]2F)cc1F` [Example 162, 5-chloro-4-(((3R,4S)-1-(3-(difluoromethyl)benzyl)-3-fluoropiperidin-4-yl)oxy)-2-fluoro-N-(thiazol-4-yl)benzenesulfonamide] was tested, and the IC50 (NaV1.6) was 6.13 µM, the IC50 (NaV1.1) was 6.88 µM and the IC50 (NaV1.5) was 5.78 µM.
